Several values for one entry are separate records, joined by “and”; a condition that tells them apart may be missing. Equal entries are not always repeated. Toxic doses and inconclusive results are not listed. Cut-off read from the data, not from the text of the source: active = T/C of 150% or more; inactive = T/C below 125%.
System: L1210 leukemia ip in BDF1 mice, survival T/C
Assay: NCI In Vivo Anticancer Drug Screen. Data for tumor model L1210 Leukemia (intraperitoneal) in B6D2F1 (BDF1) mice
Conditions: higher = longer survival
Outline: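 Tumor was transplanted into mice, which were then dosed with test compound or vehicle alone. Survival was recorded for each group, and the treated figure was expressed relative to the control figure.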

[1] = endpoint: mean survival time, dose: 100.0 mg/kg/injection, schedule: Q01DX009 (ip), vehicle: saline with Tween-80
[2] = endpoint: mean survival time, dose: 100.0 mg/kg/injection, schedule: Q04DX003 (ip), vehicle: saline with Tween-80
[3] = endpoint: mean survival time, dose: 200.0 mg/kg/injection, schedule: Q01DX009 (ip), vehicle: saline with Tween-80
[4] = endpoint: mean survival time, dose: 200.0 mg/kg/injection, schedule: Q04DX003 (ip), vehicle: saline with Tween-80
[5] = endpoint: mean survival time, dose: 400.0 mg/kg/injection, schedule: Q01DX009 (ip), vehicle: saline with Tween-80
[6] = endpoint: mean survival time, dose: 400.0 mg/kg/injection, schedule: Q04DX003 (ip), vehicle: saline with Tween-80
[7] = endpoint: mean survival time, dose: 100.0 mg/kg/injection, schedule: Q01DX001 (ip), vehicle: saline with Tween-80
[8] = endpoint: mean survival time, dose: 100.0 mg/kg/injection, schedule: Q04DX002 (ip), vehicle: saline with Tween-80
[9] = endpoint: mean survival time, dose: 200.0 mg/kg/injection, schedule: Q01DX001 (ip), vehicle: saline with Tween-80
[10] = endpoint: mean survival time, dose: 200.0 mg/kg/injection, schedule: Q04DX002 (ip), vehicle: saline with Tween-80
[11] = endpoint: mean survival time, dose: 400.0 mg/kg/injection, schedule: Q01DX001 (ip), vehicle: saline with Tween-80
[12] = endpoint: mean survival time, dose: 400.0 mg/kg/injection, schedule: Q04DX002 (ip), vehicle: saline with Tween-80

Measured: T/C

Cn1c(N)nc2nc[nH]c2c1=S
inactive: endpoint: mean survival time, dose: 0.25 mg/kg/injection, schedule: Q01DX Z (ip), vehicle: carboxymethylcellulose (CMC) 104 % of control | endpoint: mean survival time, dose: 0.5 mg/kg/injection, schedule: Q01DX Z (ip), vehicle: carboxymethylcellulose (CMC) 101 % of control | endpoint: mean survival time, dose: 1.0 mg/kg/injection, schedule: Q01DX Z (ip), vehicle: carboxymethylcellulose (CMC) 104 % of control | endpoint: mean survival time, dose: 2.0 mg/kg/injection, schedule: Q01DX015 (ip), vehicle: carboxymethylcellulose (CMC) 103 % of control | endpoint: mean survival time, dose: 2.0 mg/kg/injection, schedule: Q01DX Z (ip), vehicle: carboxymethylcellulose (CMC) 107 % of control | endpoint: mean survival time, dose: 2.5 mg/kg/injection, schedule: Q01DX010 (ip), vehicle: saline 95 % of control and 91 % of control | endpoint: mean survival time, dose: 4.0 mg/kg/injection, schedule: Q01DX015 (ip), vehicle: carboxymethylcellulose (CMC) 92 % of control | endpoint: mean survival time, dose: 4.0 mg/kg/injection, schedule: Q01DX Z (ip), vehicle: carboxymethylcellulose (CMC) 97 % of control and 106 % of control | endpoint: mean survival time, dose: 5.0 mg/kg/injection, schedule: Q01DX009 (ip), vehicle: saline 101 % of control and 106 % of control | endpoint: mean survival time, dose: 5.0 mg/kg/injection, schedule: Q01DX010 (ip), vehicle: saline 97 % of control and 101 % of control | endpoint: mean survival time, dose: 6.0 mg/kg/injection, schedule: Q01DX Z (ip), vehicle: methylcellulose (MC) 123 % of control | endpoint: mean survival time, dose: 8.0 mg/kg/injection, schedule: Q01DX015 (ip), vehicle: carboxymethylcellulose (CMC) 107 % of control | endpoint: mean survival time, dose: 8.0 mg/kg/injection, schedule: Q01DX Z (ip), vehicle: carboxymethylcellulose (CMC) 118 % of control | endpoint: mean survival time, dose: 10.0 mg/kg/injection, schedule: Q01DX009 (ip), vehicle: saline 101 % of control and 104 % of control | endpoint: mean survival time, dose: 10.0 mg/kg/injection, schedule: Q01DX010 (ip), vehicle: saline 100 % of control and 91 % of control | endpoint: mean survival time, dose: 16.0 mg/kg/injection, schedule: Q01DX015 (ip), vehicle: carboxymethylcellulose (CMC) 104 % of control and 116 % of control | endpoint: mean survival time, dose: 16.0 mg/kg/injection, schedule: Q01DX Z (ip), vehicle: carboxymethylcellulose (CMC) 110 % of control | endpoint: mean survival time, dose: 20.0 mg/kg/injection, schedule: Q01DX009 (ip), vehicle: saline 106 % of control and 113 % of control | endpoint: mean survival time, dose: 20.0 mg/kg/injection, schedule: Q01DX010 (ip), vehicle: saline 94 % of control and 95 % of control and 116 % of control | endpoint: mean survival time, dose: 32.0 mg/kg/injection, schedule: Q01DX015 (ip), vehicle: carboxymethylcellulose (CMC) 123 % of control | endpoint: mean survival time, dose: 40.0 mg/kg/injection, schedule: Q01DX009 (ip), vehicle: saline 119 % of control | endpoint: mean survival time, dose: 40.0 mg/kg/injection, schedule: Q01DX010 (ip), vehicle: saline 97 % of control | endpoint: mean survival time, dose: 64.0 mg/kg/injection, schedule: Q01DX010 (iv), vehicle: saline 102 % of control | endpoint: mean survival time, dose: 64.0 mg/kg/injection, schedule: Q01DX015 (ip), vehicle: carboxymethylcellulose (CMC) 123 % of control | endpoint: mean survival time, dose: 80.0 mg/kg/injection, schedule: Q01DX010 (ip), vehicle: saline 97 % of control | endpoint: mean survival time, dose: 128.0 mg/kg/injection, schedule: Q01DX010 (iv), vehicle: saline 100 % of control | endpoint: mean survival time, dose: 128.0 mg/kg/injection, schedule: Q01DX015 (ip), vehicle: carboxymethylcellulose (CMC) 115 % of control | endpoint: mean survival time, dose: 256.0 mg/kg/injection, schedule: Q01DX010 (iv), vehicle: saline 108 % of control | endpoint: median survival time, dose: 5.0 mg/kg/injection, schedule: Q01DX009 (ip), vehicle: saline 105 % of control and 106 % of control | endpoint: median survival time, dose: 10.0 mg/kg/injection, schedule: Q01DX009 (ip), vehicle: saline 110 % of control | endpoint: median survival time, dose: 20.0 mg/kg/injection, schedule: Q01DX009 (ip), vehicle: saline 110 % of control and 112 % of control | endpoint: median survival time, dose: 40.0 mg/kg/injection, schedule: Q01DX009 (ip), vehicle: saline 120 % of control
active: endpoint: mean survival time, dose: 2.7 mg/kg/injection, schedule: Q01DX Z (ip), vehicle: methylcellulose (MC) 159 % of control | endpoint: mean survival time, dose: 4.0 mg/kg/injection, schedule: Q01DX Z (ip), vehicle: methylcellulose (MC) 150 % of control

COc1ccc(C(=O)CC(c2ccc3c(c2)OCO3)c2c(O)c3ccccc3oc2=O)cc1OC (stereo not drawn)
inactive: endpoint: mean survival time, dose: 50.0 mg/kg/injection, schedule: Q01DX009 (ip), vehicle: saline with Tween-80 97 % of control | [1] 96 % of control | [2] 94 % of control | [3] 92 % of control | [4] 102 % of control | [5] 87 % of control | [6] 89 % of control

CCS(=O)(=O)c1ccc(NC(=O)OC(c2ccccc2)c2ccccc2)cc1
inactive: endpoint: mean survival time, dose: 100.0 mg/kg/injection, schedule: Q01DX001 (ip), vehicle: carboxymethylcellulose (CMC) 94 % of control | endpoint: mean survival time, dose: 200.0 mg/kg/injection, schedule: Q01DX001 (ip), vehicle: carboxymethylcellulose (CMC) 91 % of control | endpoint: mean survival time, dose: 400.0 mg/kg/injection, schedule: Q01DX001 (ip), vehicle: carboxymethylcellulose (CMC) 96 % of control

CC1CCS(=O)(=O)CC1.[Cl][Hg][Cl]
inactive: endpoint: mean survival time, dose: 0.31 mg/kg/injection, schedule: Q01DX009 (ip), vehicle: saline 95 % of control | endpoint: mean survival time, dose: 0.62 mg/kg/injection, schedule: Q01DX009 (ip), vehicle: saline 86 % of control | endpoint: mean survival time, dose: 1.25 mg/kg/injection, schedule: Q01DX009 (ip), vehicle: saline 91 % of control

Cn1ncc(C#N)c1N
inactive: endpoint: mean survival time, dose: 50.0 mg/kg/injection, schedule: Q01DX001 (ip), vehicle: saline 98 % of control | endpoint: mean survival time, dose: 100.0 mg/kg/injection, schedule: Q01DX001 (ip), vehicle: saline 110 % of control | endpoint: mean survival time, dose: 100.0 mg/kg/injection, schedule: Q04DX002 (ip), vehicle: Klucel (hydroxypropylcellulose) (HPC) 98 % of control | endpoint: mean survival time, dose: 200.0 mg/kg/injection, schedule: Q01DX001 (ip), vehicle: saline 95 % of control | endpoint: mean survival time, dose: 200.0 mg/kg/injection, schedule: Q04DX002 (ip), vehicle: Klucel (hydroxypropylcellulose) (HPC) 91 % of control | endpoint: mean survival time, dose: 400.0 mg/kg/injection, schedule: Q01DX001 (ip), vehicle: saline 95 % of control | endpoint: mean survival time, dose: 400.0 mg/kg/injection, schedule: Q04DX002 (ip), vehicle: Klucel (hydroxypropylcellulose) (HPC) 100 % of control

C=CCC1(C(=C)C)C(=O)NC(=S)NC1=O
inactive: endpoint: mean survival time, dose: 75.0 mg/kg/injection, schedule: Q01DX001 (ip), vehicle: carboxymethylcellulose (CMC) 95 % of control | endpoint: mean survival time, dose: 75.0 mg/kg/injection, schedule: Q01DX001 (ip), vehicle: saline 91 % of control | endpoint: mean survival time, dose: 150.0 mg/kg/injection, schedule: Q01DX001 (ip), vehicle: carboxymethylcellulose (CMC) 105 % of control | endpoint: mean survival time, dose: 150.0 mg/kg/injection, schedule: Q01DX001 (ip), vehicle: saline 102 % of control

CCN(CC)C(=O)CS(=O)(=O)c1ccc(N)cc1
inactive: [2] 102 % of control | [4] 97 % of control | [6] 100 % of control

COc1ccc(NC(=S)/C(=C(/[O-])c2ccc(C)cc2)[n+]2ccccc2)cc1
inactive: [7] 92 % of control | [8] 95 % of control and 96 % of control | [2] 105 % of control and 108 % of control and 90 % of control | [9] 102 % of control | [10] 97 % of control and 110 % of control | [4] 93 % of control and 98 % of control and 105 % of control | [11] 94 % of control | [12] 98 % of control and 104 % of control | [6] 93 % of control and 95 % of control and 91 % of control

COc1ccc(NC(=O)COc2ccc(Cl)cc2)cc1
inactive: endpoint: mean survival time, dose: 100.0 mg/kg/injection, schedule: Q01DX009 (ip), vehicle: Klucel (hydroxypropylcellulose) (HPC) 93 % of control | endpoint: mean survival time, dose: 100.0 mg/kg/injection, schedule: Q04DX003 (ip), vehicle: Klucel (hydroxypropylcellulose) (HPC) 100 % of control | endpoint: mean survival time, dose: 200.0 mg/kg/injection, schedule: Q01DX009 (ip), vehicle: Klucel (hydroxypropylcellulose) (HPC) 90 % of control | endpoint: mean survival time, dose: 200.0 mg/kg/injection, schedule: Q04DX003 (ip), vehicle: Klucel (hydroxypropylcellulose) (HPC) 106 % of control | endpoint: mean survival time, dose: 400.0 mg/kg/injection, schedule: Q01DX009 (ip), vehicle: Klucel (hydroxypropylcellulose) (HPC) 92 % of control | endpoint: mean survival time, dose: 400.0 mg/kg/injection, schedule: Q04DX003 (ip), vehicle: Klucel (hydroxypropylcellulose) (HPC) 93 % of control

S=C(NCc1ccccc1)Nc1ccccc1
inactive: [2] 96 % of control | [4] 94 % of control

O=C(c1ccccc1)c1cc(Cl)ccc1NC(=O)C(Cl)(Cl)Cl
inactive: endpoint: mean survival time, dose: 50.0 mg/kg/injection, schedule: Q01DX001 (ip), vehicle: saline with Tween-80 97 % of control | [7] 102 % of control | [1] 95 % of control and 89 % of control | [8] 96 % of control and 104 % of control | [9] 92 % of control | [3] 95 % of control and 89 % of control | [10] 93 % of control and 96 % of control | [11] 91 % of control | [5] 89 % of control and 91 % of control | [12] 101 % of control and 89 % of control

From PubChem BioAssay AID248 (DTP/NCI, 2004)
